The text below walks through data of US11400076B2, “Cancer stem cell inhibitor” (KEIO UNIVERSITY, priority 2017, dated 2022).

Series [1] relates to cancer stem cells (spheroid-forming cells). In words: Spheroid culture of cancer stem cells in 96-well plate with analyte. In kind it is cell-based, mice. Conditions: various concentration of analytes, medium without differentiation-inducing component, FIG. 2. On the procedure: (§1) In accordance with the literature ([…]. et. al., Neoplasia, 13(9) 2011, 784 to 791), the subventricular zone was resected from Ink4a/Arf deficient mice and subjected to trypsin treatment to obtain spheroid-forming cells. The resulting spheroids were cultured in a culture medium containing no differentiation-inducing component (DMEM/F12 in which 20 ng/mL of EGF, 20 ng/mL of FGF, B27 supplement in which vitamin A was removed, 200 ng/mL of heparan sulfate, 100 U/mL of penicillin, and 100 U/mL of streptomycin were added) in a flow of 5% carbon dioxide at 37° C. Then, a constitutively active, mutated form of H-Ras and, as necessary, reporter cassettes for detecting, for example, fluorescent signals or selection marker for cell selection, for example, drug-resistant cassettes, were incorporated into cancer stem cells for transformation, and cultured to obtain spheroid-forming cells. These cells were transplanted to the brains of C57BL/6 mice, then the formed brain tumors were resected and subjected to trypsin treatment to obtain cells. Drug-resistant or fluorescent reporter-positive cells were sorted, and then cell cycle markers were introduced into part of the cells. Thus-obtained spheroid-forming cells were cultured under the above-described culturing condition, and used as a sample. […]

The subject of series [2] is cancer stem cells (spheroid). Nature of the series: Spheroid cell death monitored with propidium iodide (PI). It counts as cell-based, mice. Conditions: for cell death (PI positive area): spheroid, PI added, monitored over time, FIG. 4. On the procedure:
In accordance with the literature (Sampetrean O. et. al., Neoplasia, 13(9) 2011, 784 to 791), the subventricular zone was resected from Ink4a/Arf deficient mice and subjected to trypsin treatment to obtain spheroid-forming cells. The resulting spheroids were cultured in a culture medium containing no differentiation-inducing component (DMEM/F12 in which 20 ng/mL of EGF, 20 ng/mL of FGF, B27 supplement in which vitamin A was removed, 200 ng/mL of heparan sulfate, 100 U/mL of penicillin, and 100 U/mL of streptomycin were added) in a flow of 5% carbon dioxide at 37° C. […] These cells were transplanted to the brains of C57BL/6 mice, then the formed brain tumors were resected and subjected to trypsin treatment to obtain cells. Drug-resistant or fluorescent reporter-positive cells were sorted, and then cell cycle markers were introduced into part of the cells. Thus-obtained spheroid-forming cells were cultured under the above-described culturing condition, and used as a sample.

Series [3] deals with cancer stem cells. In words: Radiation-induced double-strand break, Hoechst 33324 and γH2AX double staining. In kind it is cell-based, mice. Conditions: irradiated, hypoxic condition, FIG. 10. The text has this:
Cells cultured according to the method of Example 1, with or without doranidazole, were irradiated, followed by double staining with Hoechst 33324 and γH2AX, and then double-strand break was quantified.

Series [4] relates to cancer stem cells. Nature of the series: ATP levels in cancer stem cells. In kind it is cell-based, mice. To be noted: 21% oxygen (normoxic) and 1% oxygen (hypoxic), FIG. 6. On the procedure: (§2) Since the cell cycle was arrested in the G1 phase, a decrease in energy metabolism was suspected. ATP levels under 21% oxygen (normoxic condition) and 1% oxygen (hypoxic condition) were measured using the same cells as in Example 1. […] From this, suppression of mitochondrial function was suspected, and so, mitochondrial function was evaluated by extracellular flux analysis.

For the next series, the system named is mitochondrial complex II. Nature of the series: Expression levels of mitochondrial complex I to V by electrophoresis and Western Blot. In kind it is cell-based, mice. To be noted: protein extracted from cells of Example 1, FIG. 7. As for the experimental part: Furthermore, protein was extracted from cells of Example 1, and the expression levels of mitochondrial complex I to V were measured by electrophoresis and Western Blot.

The conditions of series [5]: in vivo; cited from earlier work.
Series [6] deals with reactive oxygen species (ROS) in mitochondria. In words: Mito Sox staining, mitochondrial ROS by flow cytometry. In kind it is cell-based, mice. To be noted: FIG. 8. The text has this: Using Mito Sox staining, reactive oxygen species (ROS) in mitochondria was quantified by flow cytometry for the cells cultured according to Example 1, with or without doranidazole, misonidazole, or metronidazole.

Series [7] concerns mitochondria in cancer stem cells. Nature of the series: Mitochondrial function by extracellular flux analysis. In kind it is cell-based, mice. Conditions: 21% oxygen (normoxic) and 1% oxygen (hypoxic), FIG. 6. On the procedure:
as §2

The subject of series [8] is undifferentiated cancer stem cells. In words: Effect with altered degree of induction of differentiation by serum. Conditions: serum-free vs serum-containing medium, 4 days, FIG. 9. It counts as cell-based, mice. The source says: Using the method similar to Example 1, the degree of induction of differentiation was altered by changing the culture mediums, to observe the effect thereby. Specifically, a group cultured in a serum-free culture medium of Example 1 for consecutive 4 days; a group cultured in a serum-free culture medium for 3 days, and then cultured in a serum-containing culture medium for 1 day; a group cultured in a serum-containing culture medium for 3 days, and then cultured in a serum-free culture medium for 1 day; and the remaining one group cultured in a serum-containing culture medium for 4 days; were prepared. According to such culturing, the degree of induction of differentiation by serum was altered and the effect of doranidazole was confirmed.

The subject of series [9] is cancer stem cells (spheroid-forming cells). In words: Monolayer culture of cancer stem cells, cell cycle and growth. It counts as cell-based, mice. To be noted: various concentrations, FIG. 3. As for the experimental part:
as §1, with “sample. The above cells were subjected to monolayer culture.” for “sample.”

For `O=[N+]([O-])c1nccn1COC(CO)C(O)CO` (centres unmarked) [doranidazole], the growth of spheroids entry in series [1] is given as “suppresses the growth of spheroids”. In addition, the “type of cell death” value in [2] (inhibitor comparison, FIG. 5) is “ferroptosis”. In series [2], the “cell death (PI positive area)” value is “cell death is induced by doranidazole in dose dependent manner”. The radiation-induced double-strand break result in the series on cancer stem cells [3] is recorded as “significantly enhances”. In the series with cancer stem cells [4], the “ATP content of cancer stem cells” value is “decreased”. Besides, the “expression of complex II” value in the series with mitochondrial complex II is “remarkably decreased”. For the same compound, the LD50 in [5] was no less than 5000 mg/kg. For the same compound, the ROS in mitochondria entry in series [6] is “significantly increases”. For the same compound, in series [7], the “oxygen consumption of mitochondria” value is “decreased depending on the concentration” and the “reserve capacity of mitochondria” value was “decreased depending on the concentration”. In addition, the “effect depending on degree of induction of differentiation by serum” value in [8] was “when the degree of induction of differentiation by serum is low, the effect of doranidazole is remarkable”. In [9], the cell cycle result was “arrests the cell cycle in the G1 phase” and the growth result is on record as “suppresses growth”.
For `CCOC(=O)c1ccc(NC2CCCCC2)c(N)c1` [ferrostatin 1], in series [2] (compared to DMSO, necrostatin 1 and Z-VAD-FMK, FIG. 5), the “suppression of doranidazole-induced cell death” value is recorded as “significantly suppressed”.
For `Cc1ncc([N+](=O)[O-])n1CCO` [metronidazole], the “cell death (PI positive area)” value in series [2] is reported as “no cell death was observed”. The ROS in mitochondria result in [6] is reported as “not observed”.
Consider `COCC(O)Cn1ccnc1[N+](=O)[O-]` (centres unmarked) [misonidazole], for which the “cell death (PI positive area)” value in [2] is reported as “the cell death was similarly confirmed”. In addition, the “expression of complex II” value with mitochondrial complex II was “remarkably decreased”. Also, in series [5], the median lethal dose (LD50) result is “about 1 g/kg”. In addition, in series [6], the ROS in mitochondria entry is recorded as “significantly increases”.
